Test results as given in publication PMC10905675, “INX-315, a Selective CDK2 Inhibitor, Induces Cell Cycle Arrest and Senescence in Solid Tumors” (Cancer Discovery, 2023).

Legend:
Assay in all cases: SelectScreen ZLYTE
Assay type in all cases: biochemical
Conditions in all cases: INX-0315 at 100nM
[1] = target: T1, MAPK11 (p38 beta) (Homo sapiens, UniProt Q15759)
T1 construct: purchased Thermo Fisher Scientific SelectScreen (plus Nanosyn / Reaction Biology for CDK/cyclin lines)
Description: (§1) INX-315 was first evaluated in the SelectScreen Biochemical Kinase Profiling at Thermo Fisher Scientific (Madison, WI). The primary screen consisted of INX-315 dosed at a single concentration of 100 nmol/L in 1% DMSO across each platform within the SelectScreen array of assays, LanthaScreen Eu Kinase Binding Assay; AdaptaScreen; and Z'LyteScreen using preestablished conditions at Thermo Fisher Scientific as shown in Supplementary Table S2. […] The follow-up screen consisted of 10-point dose–response curves for INX-315 from 1 µmol/L to 0.0495 nmol/L.

[2] = target: T2, HIPK4 (Homo sapiens, UniProt Q8NE63)
T2 construct: purchased Thermo Fisher Scientific SelectScreen (plus Nanosyn / Reaction Biology for CDK/cyclin lines)
Description: as §1

[3] = target: T3, KIT V559D (Homo sapiens, UniProt P10721, V559D)
T3 construct: purchased Thermo Fisher Scientific SelectScreen (plus Nanosyn / Reaction Biology for CDK/cyclin lines)
Description: as §1

[4] = target: T4, SRC N1 (Homo sapiens, UniProt P12931)
T4 construct: purchased Thermo Fisher Scientific SelectScreen (plus Nanosyn / Reaction Biology for CDK/cyclin lines)
Description: as §1

[5] = target: T5, KIT (Homo sapiens, UniProt P10721)
T5 construct: purchased Thermo Fisher Scientific SelectScreen (plus Nanosyn / Reaction Biology for CDK/cyclin lines)
Description: as §1

[6] = target: T6, MET (cMet) Y1235D (Homo sapiens, UniProt P08581, Y1235D)
T6 construct: purchased Thermo Fisher Scientific SelectScreen (plus Nanosyn / Reaction Biology for CDK/cyclin lines)
Description: as §1

[7] = target: T7, DCAMKL2 (DCK2) (Homo sapiens, UniProt Q8N568)
T7 construct: purchased Thermo Fisher Scientific SelectScreen (plus Nanosyn / Reaction Biology for CDK/cyclin lines)
Description: as §1

[8] = target: T8, MARK3 (Homo sapiens, UniProt P27448)
T8 construct: purchased Thermo Fisher Scientific SelectScreen (plus Nanosyn / Reaction Biology for CDK/cyclin lines)
Description: as §1

[9] = target: T9, PDK1 Direct (Homo sapiens, UniProt O15530)
T9 construct: purchased Thermo Fisher Scientific SelectScreen (plus Nanosyn / Reaction Biology for CDK/cyclin lines)
Description: as §1

[10] = target: T10, RPS6KB2 (p70S6Kb) (Homo sapiens, UniProt Q9UBS0)
T10 construct: purchased Thermo Fisher Scientific SelectScreen (plus Nanosyn / Reaction Biology for CDK/cyclin lines)
Description: as §1

[11] = target: T11, PRKCH (PKC eta) (Homo sapiens, UniProt P24723)
T11 construct: purchased Thermo Fisher Scientific SelectScreen (plus Nanosyn / Reaction Biology for CDK/cyclin lines)
Description: as §1

[12] = target: T12, ABL1 F317L (Homo sapiens, UniProt P00519, F317L)
T12 construct: purchased Thermo Fisher Scientific SelectScreen (plus Nanosyn / Reaction Biology for CDK/cyclin lines)
Description: as §1

[13] = target: T13, PRKCB2 (PKC beta II) (Homo sapiens, UniProt P05771)
T13 construct: purchased Thermo Fisher Scientific SelectScreen (plus Nanosyn / Reaction Biology for CDK/cyclin lines)
Description: as §1

[14] = target: T14, FLT3 (Homo sapiens, UniProt P36888)
T14 construct: purchased Thermo Fisher Scientific SelectScreen (plus Nanosyn / Reaction Biology for CDK/cyclin lines)
Description: as §1

[15] = target: T15, IRAK4 (Homo sapiens, UniProt Q9NWZ3)
T15 construct: purchased Thermo Fisher Scientific SelectScreen (plus Nanosyn / Reaction Biology for CDK/cyclin lines)
Description: as §1

[16] = target: T16, AURKA (Aurora A) (Homo sapiens, UniProt O14965)
T16 construct: purchased Thermo Fisher Scientific SelectScreen (plus Nanosyn / Reaction Biology for CDK/cyclin lines)
Description: as §1

[17] = target: T17, MAPK8 (JNK1) (Homo sapiens, UniProt P45983)
T17 construct: purchased Thermo Fisher Scientific SelectScreen (plus Nanosyn / Reaction Biology for CDK/cyclin lines)
Description: as §1

[18] = target: T18, CDC42 BPB (MRCKB) (Homo sapiens, UniProt Q9Y5S2)
T18 construct: purchased Thermo Fisher Scientific SelectScreen (plus Nanosyn / Reaction Biology for CDK/cyclin lines)
Description: as §1

[19] = target: T19, NEK2 (Homo sapiens, UniProt P51955)
T19 construct: purchased Thermo Fisher Scientific SelectScreen (plus Nanosyn / Reaction Biology for CDK/cyclin lines)
Description: as §1

[20] = target: T20, ACVR1B (ALK4) (Homo sapiens, UniProt P36896)
T20 construct: purchased Thermo Fisher Scientific SelectScreen (plus Nanosyn / Reaction Biology for CDK/cyclin lines)
Description: as §1

[21] = target: T21, FES (FPS) (Homo sapiens, UniProt P07332)
T21 construct: purchased Thermo Fisher Scientific SelectScreen (plus Nanosyn / Reaction Biology for CDK/cyclin lines)
Description: as §1

[22] = target: T22, AMPK A2/B1/G1 (Homo sapiens, UniProt P54646)
T22 construct: purchased Thermo Fisher Scientific SelectScreen (plus Nanosyn / Reaction Biology for CDK/cyclin lines)
Description: as §1

[23] = target: T23, JAK1 (Homo sapiens, UniProt P23458)
T23 construct: purchased Thermo Fisher Scientific SelectScreen (plus Nanosyn / Reaction Biology for CDK/cyclin lines)
Description: as §1

[24] = target: T24, KIT V560G (Homo sapiens, UniProt P10721, V560G)
T24 construct: purchased Thermo Fisher Scientific SelectScreen (plus Nanosyn / Reaction Biology for CDK/cyclin lines)
Description: as §1

[25] = target: T25, STK25 (YSK1) (Homo sapiens, UniProt O00506)
T25 construct: purchased Thermo Fisher Scientific SelectScreen (plus Nanosyn / Reaction Biology for CDK/cyclin lines)
Description: as §1

[26] = target: T26, AKT2 (PKB beta) (Homo sapiens, UniProt P31751)
T26 construct: purchased Thermo Fisher Scientific SelectScreen (plus Nanosyn / Reaction Biology for CDK/cyclin lines)
Description: as §1

[27] = target: T27, KDR (VEGFR2) (Homo sapiens, UniProt P35968)
T27 construct: purchased Thermo Fisher Scientific SelectScreen (plus Nanosyn / Reaction Biology for CDK/cyclin lines)
Description: as §1

[28] = target: T28, FGR (Homo sapiens, UniProt P09769)
T28 construct: purchased Thermo Fisher Scientific SelectScreen (plus Nanosyn / Reaction Biology for CDK/cyclin lines)
Description: as §1

[29] = target: T29, EPHA2 (Homo sapiens, UniProt P29317)
T29 construct: purchased Thermo Fisher Scientific SelectScreen (plus Nanosyn / Reaction Biology for CDK/cyclin lines)
Description: as §1

[30] = target: T30, JAK2 JH1 JH2 (Homo sapiens, UniProt O60674)
T30 construct: JAK2 JH1 JH2; purchased Thermo Fisher Scientific SelectScreen (plus Nanosyn / Reaction Biology for CDK/cyclin lines)
Description: as §1

[31] = target: T31, MYLK2 (skMLCK) (Homo sapiens, UniProt Q9H1R3)
T31 construct: purchased Thermo Fisher Scientific SelectScreen (plus Nanosyn / Reaction Biology for CDK/cyclin lines)
Description: as §1

[32] = target: T32, PKN1 (PRK1) (Homo sapiens, UniProt Q16512)
T32 construct: purchased Thermo Fisher Scientific SelectScreen (plus Nanosyn / Reaction Biology for CDK/cyclin lines)
Description: as §1

[33] = target: T33, TEK (TIE2) Y897S (Homo sapiens, UniProt Q02763, Y897S)
T33 construct: purchased Thermo Fisher Scientific SelectScreen (plus Nanosyn / Reaction Biology for CDK/cyclin lines)
Description: as §1

[34] = target: T34, STK4 (MST1) (Homo sapiens, UniProt Q13043)
T34 construct: purchased Thermo Fisher Scientific SelectScreen (plus Nanosyn / Reaction Biology for CDK/cyclin lines)
Description: as §1

[35] = target: T35, YES1 (Homo sapiens, UniProt P07947)
T35 construct: purchased Thermo Fisher Scientific SelectScreen (plus Nanosyn / Reaction Biology for CDK/cyclin lines)
Description: as §1

[36] = target: T36, HIPK2 (Homo sapiens, UniProt Q9H2X6)
T36 construct: purchased Thermo Fisher Scientific SelectScreen (plus Nanosyn / Reaction Biology for CDK/cyclin lines)
Description: as §1

[37] = target: T37, EPHA4 (Homo sapiens, UniProt P54764)
T37 construct: purchased Thermo Fisher Scientific SelectScreen (plus Nanosyn / Reaction Biology for CDK/cyclin lines)
Description: as §1

T11 sequence (P24723 whole entry): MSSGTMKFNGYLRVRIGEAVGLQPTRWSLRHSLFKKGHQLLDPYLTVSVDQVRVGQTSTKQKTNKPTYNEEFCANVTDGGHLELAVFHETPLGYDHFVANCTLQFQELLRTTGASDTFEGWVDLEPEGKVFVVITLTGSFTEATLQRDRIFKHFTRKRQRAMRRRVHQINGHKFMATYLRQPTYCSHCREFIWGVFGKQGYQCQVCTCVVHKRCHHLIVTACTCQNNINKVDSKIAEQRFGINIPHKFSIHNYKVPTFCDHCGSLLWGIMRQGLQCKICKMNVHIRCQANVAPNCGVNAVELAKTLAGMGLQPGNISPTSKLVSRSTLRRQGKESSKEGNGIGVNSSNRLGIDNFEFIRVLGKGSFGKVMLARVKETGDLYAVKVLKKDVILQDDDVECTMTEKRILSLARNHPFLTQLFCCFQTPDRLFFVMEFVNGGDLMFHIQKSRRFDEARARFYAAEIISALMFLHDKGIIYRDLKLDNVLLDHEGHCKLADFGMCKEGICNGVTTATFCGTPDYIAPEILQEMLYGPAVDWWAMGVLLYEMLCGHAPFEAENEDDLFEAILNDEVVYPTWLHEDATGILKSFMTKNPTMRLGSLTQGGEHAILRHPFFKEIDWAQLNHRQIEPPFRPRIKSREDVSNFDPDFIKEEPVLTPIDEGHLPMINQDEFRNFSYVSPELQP
T36 sequence (Q9H2X6 whole entry): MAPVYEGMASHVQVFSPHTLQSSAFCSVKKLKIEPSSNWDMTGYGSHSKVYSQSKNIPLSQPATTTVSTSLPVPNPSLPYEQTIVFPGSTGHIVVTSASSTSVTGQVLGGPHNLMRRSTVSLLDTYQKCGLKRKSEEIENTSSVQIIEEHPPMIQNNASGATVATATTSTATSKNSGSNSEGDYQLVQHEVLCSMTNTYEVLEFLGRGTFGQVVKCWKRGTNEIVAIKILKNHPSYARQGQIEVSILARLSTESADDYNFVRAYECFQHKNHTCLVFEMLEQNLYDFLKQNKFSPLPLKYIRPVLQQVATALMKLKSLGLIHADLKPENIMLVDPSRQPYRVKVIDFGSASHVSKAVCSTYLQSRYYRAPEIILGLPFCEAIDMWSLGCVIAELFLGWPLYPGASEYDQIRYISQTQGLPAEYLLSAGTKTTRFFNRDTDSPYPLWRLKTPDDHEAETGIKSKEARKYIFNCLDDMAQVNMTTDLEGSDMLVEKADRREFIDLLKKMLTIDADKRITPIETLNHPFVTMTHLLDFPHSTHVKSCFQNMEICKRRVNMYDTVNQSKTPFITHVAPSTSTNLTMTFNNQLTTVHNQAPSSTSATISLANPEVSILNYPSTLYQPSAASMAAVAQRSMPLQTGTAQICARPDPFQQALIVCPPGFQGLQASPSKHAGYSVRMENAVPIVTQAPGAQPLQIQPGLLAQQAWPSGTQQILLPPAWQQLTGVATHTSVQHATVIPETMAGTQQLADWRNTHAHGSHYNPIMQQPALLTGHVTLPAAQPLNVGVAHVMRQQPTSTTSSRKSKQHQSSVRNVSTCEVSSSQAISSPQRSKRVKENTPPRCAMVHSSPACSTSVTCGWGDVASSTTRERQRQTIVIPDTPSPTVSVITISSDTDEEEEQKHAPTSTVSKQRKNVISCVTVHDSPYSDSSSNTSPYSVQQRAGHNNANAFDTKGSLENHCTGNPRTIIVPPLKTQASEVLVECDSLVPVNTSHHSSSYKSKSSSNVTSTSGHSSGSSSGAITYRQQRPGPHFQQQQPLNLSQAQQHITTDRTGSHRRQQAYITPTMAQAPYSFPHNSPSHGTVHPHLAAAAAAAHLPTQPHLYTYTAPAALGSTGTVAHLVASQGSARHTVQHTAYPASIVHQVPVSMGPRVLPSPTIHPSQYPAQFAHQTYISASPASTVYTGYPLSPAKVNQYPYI
T4 sequence (P12931 1-542 isoform P12931-2): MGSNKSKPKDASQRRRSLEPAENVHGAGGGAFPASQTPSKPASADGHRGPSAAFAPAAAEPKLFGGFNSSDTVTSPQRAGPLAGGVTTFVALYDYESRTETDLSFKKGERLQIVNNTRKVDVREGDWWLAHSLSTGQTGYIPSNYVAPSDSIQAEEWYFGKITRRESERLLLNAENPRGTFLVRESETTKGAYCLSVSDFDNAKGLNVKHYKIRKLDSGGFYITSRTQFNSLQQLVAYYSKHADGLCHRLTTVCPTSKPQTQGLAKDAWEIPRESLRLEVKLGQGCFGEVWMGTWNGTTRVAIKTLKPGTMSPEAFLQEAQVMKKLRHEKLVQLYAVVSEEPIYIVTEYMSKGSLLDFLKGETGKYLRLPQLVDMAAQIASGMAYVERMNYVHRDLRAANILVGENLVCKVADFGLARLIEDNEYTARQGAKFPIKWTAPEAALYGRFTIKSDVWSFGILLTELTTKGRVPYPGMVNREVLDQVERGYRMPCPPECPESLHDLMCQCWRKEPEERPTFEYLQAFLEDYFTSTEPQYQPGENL
T33 sequence (Q02763 23-1124 Y897S): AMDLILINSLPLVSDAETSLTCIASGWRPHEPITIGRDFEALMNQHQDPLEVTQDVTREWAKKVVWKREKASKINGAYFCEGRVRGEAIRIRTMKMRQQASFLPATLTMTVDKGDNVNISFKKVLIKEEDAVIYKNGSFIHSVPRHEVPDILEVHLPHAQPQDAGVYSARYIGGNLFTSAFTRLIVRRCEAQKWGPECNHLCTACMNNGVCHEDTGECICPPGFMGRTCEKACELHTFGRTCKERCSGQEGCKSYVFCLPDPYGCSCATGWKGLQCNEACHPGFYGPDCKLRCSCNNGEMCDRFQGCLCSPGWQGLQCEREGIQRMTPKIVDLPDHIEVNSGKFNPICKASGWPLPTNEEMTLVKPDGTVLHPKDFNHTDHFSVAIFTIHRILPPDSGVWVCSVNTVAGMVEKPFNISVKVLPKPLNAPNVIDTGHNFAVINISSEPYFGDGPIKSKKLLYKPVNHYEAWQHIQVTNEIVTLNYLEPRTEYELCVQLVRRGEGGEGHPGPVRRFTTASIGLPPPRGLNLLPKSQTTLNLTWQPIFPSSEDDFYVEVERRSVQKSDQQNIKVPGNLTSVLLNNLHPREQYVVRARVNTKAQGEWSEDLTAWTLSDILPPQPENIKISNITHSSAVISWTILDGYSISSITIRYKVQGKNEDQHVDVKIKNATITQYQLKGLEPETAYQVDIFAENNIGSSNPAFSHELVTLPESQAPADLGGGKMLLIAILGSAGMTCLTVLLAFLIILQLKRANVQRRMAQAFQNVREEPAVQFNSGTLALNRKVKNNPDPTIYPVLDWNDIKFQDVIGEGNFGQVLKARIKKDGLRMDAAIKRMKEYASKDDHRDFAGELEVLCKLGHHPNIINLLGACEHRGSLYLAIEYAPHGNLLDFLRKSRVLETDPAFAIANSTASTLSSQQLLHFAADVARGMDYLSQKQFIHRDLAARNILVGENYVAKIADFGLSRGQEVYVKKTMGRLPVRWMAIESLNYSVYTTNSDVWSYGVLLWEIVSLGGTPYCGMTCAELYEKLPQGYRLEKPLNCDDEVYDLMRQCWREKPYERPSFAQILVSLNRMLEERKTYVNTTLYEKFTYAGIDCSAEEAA
T24 sequence (P10721 26-976 V560G): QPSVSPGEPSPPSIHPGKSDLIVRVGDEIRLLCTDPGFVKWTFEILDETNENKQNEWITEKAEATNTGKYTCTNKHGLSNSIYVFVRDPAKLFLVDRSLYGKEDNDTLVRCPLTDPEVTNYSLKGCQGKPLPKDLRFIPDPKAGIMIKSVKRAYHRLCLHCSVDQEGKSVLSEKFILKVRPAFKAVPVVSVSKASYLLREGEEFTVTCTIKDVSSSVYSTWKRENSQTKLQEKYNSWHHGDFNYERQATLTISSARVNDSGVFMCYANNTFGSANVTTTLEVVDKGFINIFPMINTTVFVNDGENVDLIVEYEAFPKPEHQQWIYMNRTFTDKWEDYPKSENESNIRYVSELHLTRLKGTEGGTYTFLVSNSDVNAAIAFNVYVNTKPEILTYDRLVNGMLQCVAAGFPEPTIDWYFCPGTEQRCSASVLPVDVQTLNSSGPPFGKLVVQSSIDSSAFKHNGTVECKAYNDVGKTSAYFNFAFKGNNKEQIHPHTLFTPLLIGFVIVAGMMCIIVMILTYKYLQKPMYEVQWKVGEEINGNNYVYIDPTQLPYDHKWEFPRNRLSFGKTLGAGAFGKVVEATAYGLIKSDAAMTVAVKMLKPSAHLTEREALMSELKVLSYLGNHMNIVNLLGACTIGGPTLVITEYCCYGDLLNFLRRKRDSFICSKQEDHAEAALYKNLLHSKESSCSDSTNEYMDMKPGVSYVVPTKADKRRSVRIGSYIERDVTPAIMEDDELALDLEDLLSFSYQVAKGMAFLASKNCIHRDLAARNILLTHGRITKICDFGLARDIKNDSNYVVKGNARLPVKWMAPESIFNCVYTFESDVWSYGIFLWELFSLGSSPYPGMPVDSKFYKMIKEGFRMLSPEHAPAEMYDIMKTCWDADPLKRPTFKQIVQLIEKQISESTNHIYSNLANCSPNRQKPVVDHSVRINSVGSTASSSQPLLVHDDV
T10 sequence (Q9UBS0 whole entry): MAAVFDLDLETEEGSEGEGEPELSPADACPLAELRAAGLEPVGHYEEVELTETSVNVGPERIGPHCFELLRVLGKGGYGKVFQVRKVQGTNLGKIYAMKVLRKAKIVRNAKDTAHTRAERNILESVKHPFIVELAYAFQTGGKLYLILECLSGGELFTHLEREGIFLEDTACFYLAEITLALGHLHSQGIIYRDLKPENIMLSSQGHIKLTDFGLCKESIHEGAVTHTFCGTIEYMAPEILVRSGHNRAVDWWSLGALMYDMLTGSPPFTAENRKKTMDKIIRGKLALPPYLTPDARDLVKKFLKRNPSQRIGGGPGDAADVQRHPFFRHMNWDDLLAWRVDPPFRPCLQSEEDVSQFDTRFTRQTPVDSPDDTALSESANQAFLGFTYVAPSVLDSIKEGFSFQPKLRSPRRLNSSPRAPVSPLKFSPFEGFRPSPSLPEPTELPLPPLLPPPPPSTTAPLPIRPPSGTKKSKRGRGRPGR
T3 sequence (P10721 26-976 V559D): as the sequence (P10721 26-976 V560G) above, with V534D, G535V counted along it
T5 sequence (P10721 26-976): as the sequence (P10721 26-976 V560G) above, with G535V counted along it

`NS(=O)(=O)c1ccc(Nc2ncc3cc4n(c3n2)C2(CCCCC2)C(=O)NN4)cc1` [INX-315] gave an inhibition at 0.1 µM [1] of 7%, an inhibition at 0.1 µM [2] of 7% and an inhibition at 0.1 µM [3] of 21%. For the same molecule, the inhibition at 0.1 µM [4] was 9%, the inhibition at 0.1 µM [5] was 9% and the inhibition at 0.1 µM [6] was -2%. The inhibition at 0.1 µM [7] was -1%, the inhibition at 0.1 µM [8] was 10% and the inhibition at 0.1 µM [9] was 8%. For the same molecule, the inhibition at 0.1 µM [10] was 4%, the inhibition at 0.1 µM [11] was 11% and the inhibition at 0.1 µM [12] was 3%. It also gave an inhibition at 0.1 µM [13] of 13%, an inhibition at 0.1 µM [14] of 40% and an inhibition at 0.1 µM [15] of 10%. The inhibition at 0.1 µM [16] was 38%, the inhibition at 0.1 µM [17] was 6% and the inhibition at 0.1 µM [18] was -1%. For the same molecule, the inhibition at 0.1 µM [19] was 3%, the inhibition at 0.1 µM [20] was -2% and the inhibition at 0.1 µM [21] was 17%. It also gave an inhibition at 0.1 µM [22] of 5%, an inhibition at 0.1 µM [23] of 78% and an inhibition at 0.1 µM [24] of 27%. For the same molecule, the inhibition at 0.1 µM [25] was 1%, the inhibition at 0.1 µM [26] was 1% and the inhibition at 0.1 µM [27] was 42%. For the same molecule, the inhibition at 0.1 µM [28] was 11%, the inhibition at 0.1 µM [29] was 14% and the inhibition at 0.1 µM [30] was 44%. It also gave an inhibition at 0.1 µM [31] of 4%, an inhibition at 0.1 µM [32] of 7% and an inhibition at 0.1 µM [33] of 6%. It also gave an inhibition at 0.1 µM [34] of 26%, an inhibition at 0.1 µM [35] of 16% and an inhibition at 0.1 µM [36] of 5%. The inhibition at 0.1 µM [37] was 5%.
